# Experimental data taken from patent publication US9221786B2, “2-fluorophenyl propionic acid derivatives” (LTT BIO-PHARMA CO., LTD., priority 2011, dated 2015).
# Legend:
# [1] = molecular target: T1, COX-2 (Homo sapiens, UniProt P35354); test: Human whole blood assay, in vitro COX-2 assay (LPS-stimulated, PGE2 by EIA); assay type: cell-based; settings: for selective inhibitory action on COX-2 activity: compared with loxoprofen (1), Table 12; for COX Selectivity COX-1/COX-2: ratio of IC50 COX-1 / IC50 COX-2, human whole blood
# T1 construct: incubated at 37° C. for 24 hours to induce COX-2; from tissue; host or cells: heparinised human whole blood from healthy donors, stimulated with LPS
# T1 sequence (P35354 18-604): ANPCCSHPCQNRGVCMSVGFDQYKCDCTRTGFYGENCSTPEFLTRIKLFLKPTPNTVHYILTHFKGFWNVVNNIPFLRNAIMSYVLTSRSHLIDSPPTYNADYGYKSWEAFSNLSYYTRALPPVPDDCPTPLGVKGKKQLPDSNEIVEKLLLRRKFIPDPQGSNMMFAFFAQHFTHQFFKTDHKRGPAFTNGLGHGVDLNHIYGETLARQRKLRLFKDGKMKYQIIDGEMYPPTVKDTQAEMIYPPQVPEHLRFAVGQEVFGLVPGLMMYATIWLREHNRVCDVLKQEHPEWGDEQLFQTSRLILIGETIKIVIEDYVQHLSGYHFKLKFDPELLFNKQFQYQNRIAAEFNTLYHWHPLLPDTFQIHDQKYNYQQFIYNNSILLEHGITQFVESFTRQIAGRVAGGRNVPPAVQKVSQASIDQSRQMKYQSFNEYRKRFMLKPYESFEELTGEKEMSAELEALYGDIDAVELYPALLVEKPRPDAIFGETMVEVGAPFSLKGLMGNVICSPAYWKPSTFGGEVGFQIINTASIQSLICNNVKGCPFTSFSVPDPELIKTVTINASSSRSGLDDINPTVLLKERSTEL
# Description: Human Whole Blood Assay (In Vitro)
# This test was carried out according to the method described in Inflamm. Res., 45: 68-74 (1996).
# As blood donors, persons who were healthy on the day of collecting and had not taken NSAIDs for at least a week or more were selected.
# Blood was collected in test tubes treated with heparin (Venoject II blood collection tubes, produced by TERUMO CORPORATION). To the test tubes, inflammatory stimulant lipopolysaccharide (LPS) [Sigma-Aldrich Japan Inc., #L2880 from E. coli 055:B5; diluted with phosphate buffered saline (PBS) at a final concentration of 100 μg/mL] was added. Aliquots of 500 μL were dispensed in the tubes, and 2 μL of a solution of a test compound (final concentration: 0.1 μM to 1000 μM) in a suitable solvent (DMSO or MilliQ water) was added to the tubes and incubated at 37° C. for 24 hours to induce COX-2.
# After the incubation, the sample was centrifuged at 12,000×g for 5 minutes to separate blood serum. To remove protein from blood, 100 μL of obtained blood serum was added to 400 μL of ethanol, and the mixture was centrifuged again at 12,000×g for 5 minutes. PGE2 in the supernatant was quantitatively determined using an enzyme immunoassay (EIA) kit [Cayman (Ann, Arbor, Mich., USA) #514040] according to the attached protocol.
# [2] = system: Male Wister rats; test: Gastric ulceration after oral administration (lesion index); assay type: in vivo, rat; settings: rats fasted 18 hours, stomach excised after 8 hours, FIG. 1, versus loxoprofen (1)
# Description: This test was carried out according to the method described in Biochem. Pharmacol., 67; 575-85 (2004).
# Male Wister rats (weight: 180 to 200 g) were fasted for 18 hours, and a test compound was orally administered to the rats. After 8 hours, the stomach was excised and the area of ulcers found in the stomach was measured. The total area of all ulcers was represented as the lesion index.
# [3] = system: Male Wister rats; test: Effect on carrageenin-induced edema; assay type: in vivo, rat; settings: oral, 1 hour before carrageenin, 3 and 6 hours, FIG. 2
# Description: B: Effect on Carrageenin-Induced Edema
# This test was carried out according to the method described in Br. J. Pharmacol., 151; 285-91 (2007).
# Male Wister rats (weight: 180 to 200 g) were fasted for 18 hours, and a test compound was orally administered to the rats. After 1 hour, 100 μL of 1% carrageenin (dissolved in physiological saline) was subcutaneously injected into the left footpad to induce edema.
# Before carrageenin administration, and three hours and six hours after carrageenin administration, the leg volume was measured using a plethysmometer.
# The edema inhibition rate is calculated on the basis of the following equation. Inhibition rate(%)=100−(edema volume when a compound was administrated/edema volume when a vehicle was administrated)×100.
# [4] = earlier work of the inventors, Patent Literature 1; cited from earlier work
# [5] = compared with loxoprofen; earlier work, Patent Literature 1; cited from earlier work
SMILES,COX Selectivity COX-1/COX-2 [1],selective inhibitory action on COX-2 activity [1],gastric ulceration / gastric damage [2],anti-inflammatory effect (edema inhibition) [3],ulceration action [4],anti-inflammatory effect [5]
"CC(C(=O)O)c1ccc(CC2CCCC2=O)cc1 (stereo not drawn) [Compound 1, Loxoprofen, reference compound]",2.3,–,–,–,–,–
"CC(C(=O)O)c1ccc(CC2CCCC2=O)cc1F (stereo not drawn) [Compound 2, 2-fluoroloxoprofen]",1.7,–,–,–,low ulceration action,same anti-inflammatory effect as loxoprofen
"CC(C(=O)O)c1ccc(NC2CCCC2)cc1F (stereo not drawn) [Compound 11a, 2-[4-(cyclopentylamino)-2-fluoro-phenyl]propionic acid]",0.7,weaker selective inhibitory action on COX-2 activity than loxoprofen (1),gastric ulceration was significantly reduced,excellent anti-inflammatory effect,–,–

# Now from value to molecule, other results behind:
COX Selectivity COX-1/COX-2 [1],SMILES,selective inhibitory action on COX-2 activity [1],gastric ulceration / gastric damage [2],anti-inflammatory effect (edema inhibition) [3],ulceration action [4],anti-inflammatory effect [5]
0.1,"CC(C(=O)O)c1ccc(OC2CCCC2)cc1F (racemic) [Compound 14, 2-[4-(cyclopentyloxy)-2-fluorophenyl]-propionic acid]",weaker selective inhibitory action on COX-2 activity than loxoprofen (1),gastric ulceration was significantly reduced,excellent anti-inflammatory effect,–,–
7.6,"CC(C(=O)O)c1ccc(Cc2ccoc2)cc1F (racemic) [Compound 22a, 2-[2-fluoro-4-(furan-3-ylmethyl)-phenyl]propionic acid]",–,significantly reducing gastric damage,same level of anti-inflammatory effect as loxoprofen (1),–,–
5.3,"CC(C(=O)O)c1ccc(Cc2ccco2)cc1F (stereo not drawn) [Compound 21a, 2-[2-fluoro-4-(furan-2-ylmethyl)-phenyl]propionic acid]",–,significantly reducing gastric damage,same level of anti-inflammatory effect as loxoprofen (1),–,–
